Where two headings read alike, the source gives them in different places.
Experiments:
Assay type in all cases: cell-based, La Crosse virus
LACV V27A mutant [1] = system: LACV V27A mutant
LACV D35G mutant [2] = system: LACV D35G mutant
LACV V27A mutant [3] = settings: Vero cells; for Fold change (/original stock) / Fold change (/passage control): EC50 ratio; for EC50: mean ± SD
LACV D35G mutant [4] = settings: Vero cells; for Fold change (/original stock) / Fold change (/passage control): EC50 ratio; for EC50: mean ± SD

Row | SMILES | EC50 (LACV V27A mutant [1]) | Fold change (/original stock) (LACV V27A mutant [1]) | Fold change (/passage control) (LACV V27A mutant [1]) | EC50 (LACV D35G mutant [2]) | Fold change (/original stock) (LACV D35G mutant [2]) | Fold change (/passage control) (LACV D35G mutant [2]) | Fold change (/original stock) (LACV V27A mutant [3]) | Fold change (/passage control) (LACV V27A mutant [3]) | EC50 (LACV V27A mutant [3]) | Fold change (/original stock) (LACV D35G mutant [4]) | Fold change (/passage control) (LACV D35G mutant [4]) | EC50 (LACV D35G mutant [4])
1 | CC(C)N1CN(C2c3ccccc3CCc3ccccc32)n2cc(C(=O)O)c(=O)c(O)c2C1=O [CAPCA-1, carbamoyl pyridone carboxylic acid (CAPCA)-1] | 4.63 ± 0.8 µM | 4.87 | 7.12 | 12.9 ± 2.22 µM | 13.57 | 19.83 | 12.91 | 7.03 | 5.55 ± 1.64 µM | >46.51 | >25.32 | > 20 µM
2 | NC(=O)c1nc(F)c[nH]c1=O [T-705, favipiravir, reference compound] |  |  |  |  |  |  | 1.17 | 1.01 | 44.3 ± 5.15 µM | 1.51 | 1.30 | 57 ± 11.8 µM
